The source of these data is the Deep4Chem optical property database.

A short description of this series: solvent given as SMILES.

In the case of `Cc1ccc(/C2=c3\cc/c(o3)=C(\c3ccc(C)cc3)c3ccc([nH]3)-c3ccc4n3[B-](F)(F)[N+]3=C(C=CC3=C4c3ccco3)c3ccc2[nH]3)cc1`, the fluorescence lifetime (in ClC(Cl)Cl) came out at 4.1 ns.
Turning to `Cc1ccc(-c2ccc(/C=C/c3ccc(Cl)cc3)cn2)nc1`, where the note is “in CC#N”, the fluorescence lifetime amounted to 1.01 ns.
In turn, `CCCCCCCCC1(CCCCCCCC)c2cc(-c3ccc(C(=O)OC)cc3)ccc2-c2ccc(-c3ccc(C(=O)OC)cc3)cc21` gave a fluorescence lifetime (in CN(C)C=O) of 1.48 ns.
In turn, `c1ccc(N(c2ccccc2)c2ccc3c4cccc5c(N(c6ccccc6)c6ccccc6)ccc(c6cccc2c63)c54)cc1` showed a fluorescence lifetime (in ClCCl) of 4.71 ns.
`COc1ccc(/C=C/C2=CC(/C=C/c3ccc(OC)cc3)=[O+][B-](F)(F)O2)cc1`: the fluorescence lifetime came out at 1.55 ns (in CC#N); 1.49 ns (in CC(C)=O); 0.88 ns (in CCOC(C)=O); 0.7 ns (in CCOCC); 0.5 ns (in ClC(Cl)(Cl)Cl); 1.3 ns (in ClCCl).
As for `CCCCCCCCN1C(=O)c2ccc3c4c(-c5ccc(-n6c7ccccc7c7ccccc76)cc5)cc5c6c(ccc(c7c(-c8ccc(-n9c%10ccccc%10c%10ccccc%109)cc8)cc(c2c37)C1=O)c64)C(=O)N(CCCCCCCC)C5=O`, the fluorescence lifetime (in ClC(Cl)Cl) was determined as 3.4 ns.
Molecule `CN(C)c1ccc(C(=Cc2ccc(/C=C(\C#N)c3ccccc3)cc2)c2ccc(N(C)C)cc2)cc1` returned a fluorescence lifetime (in C1CCOC1) of 0.3 ns.
As for `c1ccc(C(=C(c2ccccc2)c2ccc(-c3ccc(-c4nc5c(-c6ccc(-c7ccc(C(=C(c8ccccc8)c8ccccc8)c8ccccc8)cc7)cc6)sc(-c6ccc(-c7ccc(C(=C(c8ccccc8)c8ccccc8)c8ccccc8)cc7)cc6)c5nc4-c4ccc(-c5ccc(C(=C(c6ccccc6)c6ccccc6)c6ccccc6)cc5)cc4)cc3)cc2)c2ccccc2)cc1`, where the note is “in ClCCl”, the fluorescence lifetime turned out to be 6.7 ns.
Take `O=C1c2ccc3c4ccc5c6c(ccc(c7ccc(c2c37)C(=O)N1c1ccncc1)c64)C(=O)N(c1ccncc1)C5=O`: the fluorescence lifetime is, setting by setting: (in C1CCOC1) 1.92 ns; (in C1COCCO1) 3.27 ns; (in CC(C)=O) 2.9 ns; (in CC(C)O) 1.74 ns; (in CCCCO) 1.85 ns; (in CCO) 0.77 ns. Further, the fluorescence lifetime (in CCOC(C)=O) stood at 1.34 ns; the fluorescence lifetime (in CN(C)C=O) amounted to 1.69 ns; the fluorescence lifetime (in CO) is 0.79 ns; the fluorescence lifetime (in CS(C)=O) came to 0.22 ns; the fluorescence lifetime (in ClC(Cl)(Cl)Cl) was found to be 3.75 ns; the fluorescence lifetime (in ClC(Cl)Cl) turned out to be 3.74 ns.
In turn, `c1csc(-c2ccc(-c3cccs3)c3nsnc23)c1` returned a fluorescence lifetime (in ClC(Cl)Cl) of 10.2 ns.
Under “in CS(C)=O”, `CN(C)c1ccc2cc3c(cc2c1)OCCN=C3` gave a fluorescence lifetime of 4.4 ns.
Molecule `Cc1c[nH]c(=O)[nH]c1=O` gave a fluorescence lifetime (in CC#N) of 0.0002 ns.
Where the note is “in ClCCl”, `Cc1ccc(N(c2ccccc2)c2ccc3ccc4c(N(c5ccccc5)c5ccc(C)cc5)ccc5ccc2c3c54)cc1` showed a fluorescence lifetime of 6.2 ns.
With `CC1(C)c2ccccc2N(c2c(F)cc(-c3nnc(-c4ccccc4)o3)cc2F)c2ccccc21`, the fluorescence lifetime (in Cc1ccccc1) was 8.8 ns.
`Cc1nnc(-c2cc(-n3c4ccccc4c4ccccc43)c(-n3c4ccccc4c4ccccc43)cc2-c2nnc(C)o2)o1` yielded a fluorescence lifetime (in Cc1ccccc1) of 14.5 ns.
For the setting “in N#Cc1ccc2c(c1)c1ccccc1n2-c1cccc(-n2c3ccccc3c3ccccc32)c1”, `CC1(C)c2ccccc2N(c2ccc(-c3ncc(C#N)cn3)cc2)c2ccccc21` came in with a fluorescence lifetime of 23.7 ns.
Molecule `F[B-]1(F)OC(c2cccc(Br)c2)=Cc2c3ccccc3cc[n+]21` returned a fluorescence lifetime (in ClC(Cl)Cl) of 0.173 ns.
As to `COc1ccc(-c2c3cc4ccccc4cc3c(-c3ccc(OC)cc3)c3cc4sc(C)cc4cc23)cc1`, under “in ClCCl”, the fluorescence lifetime was determined as 15.4 ns.
For the molecule `COc1ccc(C#Cc2ccc(C#Cc3ccc(C#Cc4ccccc4C#N)cc3C#N)cc2C#N)cc1`, the fluorescence lifetime is, setting by setting: (in C1CCOC1) 1.29 ns; (in CC#N) 1.29 ns; (in CN(C)C=O) 1.38 ns; (in ClC(Cl)Cl) 1.36 ns; (in c1ccccc1) 1.45 ns.
Regarding `Cn1c(=O)cc(C(=O)c2ccccc2)c2sc(-c3ccc(OC(F)(F)F)cc3)cc21`, the fluorescence lifetime (in ClCCl) came out at 4.77 ns.
`COc1c(-c2ccc(N(C)C)cc2)oc2ccccc2c1=O` yielded a fluorescence lifetime (in C1CCCCC1) of 0.67 ns; a fluorescence lifetime (in C1CCOC1) of 2.05 ns; a fluorescence lifetime (in CC#N) of 2.71 ns; a fluorescence lifetime (in CCOC(C)=O) of 1.67 ns; a fluorescence lifetime (in CCOCC) of 0.88 ns.
As for `O=C1c2ccccc2-c2ccc(N3CCOCC3)c3cccc1c23`, the fluorescence lifetime (in ClC(Cl)Cl) came out at 10.9 ns.
Turning to `CC(C)(C)c1ccc(-c2nc3c4ccc(-c5c6ccccc6cc6ccccc56)cc4c4cc(-c5c6ccccc6cc6ccccc56)ccc4c3n2-c2ccc(C(C)(C)C)cc2)cc1`, where the note is “in ClCCl”, the fluorescence lifetime turned out to be 6.1 ns.
Regarding `COc1ccc(C2=C(c3ccc(OC)cc3)C(c3ccccc3)=[N+]3C2=Nc2c(-c4ccc(OC)cc4)c(-c4ccc(OC)cc4)c(-c4ccccc4)n2[B-]3(F)F)cc1`, the fluorescence lifetime (in Cc1ccccc1) amounted to 0.08 ns.
In turn, `CCCCn1c2c(-c3ccc(N(c4ccccc4)c4ccccc4)cc3)cc(C#N)cc2c2cc(C#N)cc(-c3ccc(N(c4ccccc4)c4ccccc4)cc3)c21` displayed a fluorescence lifetime (in ClCCl) of 2.29 ns.
On the same count and under the same terms, the figure for `c1ccc(-c2cc3c(-c4ccccc4)c4cccc5c(-c6ccccc6)cc6c(-c7ccccc7)c7cccc2c7c3c6c54)cc1` is 2.97 ns.
As to `F[B-]1(F)Oc2ccccc2-c2cc(-n3c4ccccc4c4ccccc43)cc[n+]21`, for the setting “in O=P(c1ccccc1)(c1ccccc1)c1ccccc1Oc1ccccc1P(=O)(c1ccccc1)c1ccccc1”, the fluorescence lifetime was found to be 6.7 ns.
For the molecule `CCCN1C(=O)c2c3c(c4c(c2C1=O)CCc1cc(-c2ccc(N(C)C)cc2)c(OC)cc1-4)-c1cc(OC)c(-c2ccc(N(C)C)cc2)cc1CC3`, the fluorescence lifetime runs as follows: (in C1CCCCC1) 5.13 ns; (in C1CCOC1) 0.93 ns; (in CCOC(C)=O) 0.85 ns; (in Cc1ccccc1) 5.64 ns; (in ClCCl) 0.38 ns.
Under “in ClCCl”, `CCN(CC)c1ccc2cc(-c3nc4ccccc4n3-c3ccccc3)c(=O)oc2c1` showed a fluorescence lifetime of 13.2 ns.
In turn, `COc1ccc2c(c1)c(C#N)cc1c(OC)c(OC)c3cc(C#N)c4cc(OC)ccc4c3c12` registered a fluorescence lifetime (in ClC(Cl)Cl) of 6 ns.
For the molecule `COc1ccc2cc3c(C)cc(=O)oc3cc2c1`, the fluorescence lifetime is, setting by setting: (in CC#N) 0.35 ns; (in CCO) 4.2 ns; (in CCOC(C)=O) 0.066 ns; (in CO) 6.7 ns; (in ClC(Cl)Cl) 0.57 ns; (in OCC(F)(F)F) 13 ns.
As to `COc1ccc(C2=C(c3ccccc3)C(c3ccccc3)=[N+]3C2=Nc2c(-c4ccc(OC)cc4)c(-c4ccccc4)c(-c4ccccc4)n2[B-]3(F)F)cc1`, the fluorescence lifetime (in Cc1ccccc1) came to 0.26 ns.
For the molecule `COc1c2ccccc2c(OC)c2c1c1cc(C)ccc1n2C`, the fluorescence lifetime turned out to be 24.6 ns (in C1CCCCC1), 31.1 ns (in CC#N), 29.8 ns (in CO) and 27.6 ns (in ClCCl).
Take `Nc1ccc(/C=C/c2cccnc2)cc1`: the fluorescence lifetime runs as follows: (in CC#N) 0.18 ns; (in CCCCCC) 0.22 ns.
`CCN(CC)c1ccc2cc(-c3ccc(-c4ccc5ccc6c(-c7ccc(-c8cc9ccc(N(CC)CC)cc9oc8=O)cc7)ccc7ccc4c5c76)cc3)c(=O)oc2c1`: the fluorescence lifetime (in ClC(Cl)Cl) was found to be 8.46 ns.
Turning to `COc1ccc(C2=CC(c3ccc4ccccc4c3)=[O+][B-](C(C)=O)(C(C)=O)O2)cc1`, the fluorescence lifetime by setting is: (in CC#N) 3 ns; (in ClC(Cl)(Cl)Cl) 1.2 ns.
In the case of `CN(c1ccccc1)c1ccc(/C=C/c2ccccc2)cc1`, the fluorescence lifetime is 1.86 ns (in CC#N) and 0.62 ns (in CCCCCC).
The molecule `CN(C)c1ccc(/C=C/c2cc[n+](C)cc2)cc1` gave a fluorescence lifetime (in ClC(Cl)Cl) of 0.153 ns.
Regarding `Nc1ccc2c3c(cccc13)C(=O)c1ccccc1-2`, the fluorescence lifetime was 5.9 ns (in CC#N); 6.9 ns (in CC(C)=O); 2 ns (in CC(C)O); 9.2 ns (in CCCCOCCCC); 7.1 ns (in CCOC(C)=O); 9.5 ns (in CCOCC). Besides, the fluorescence lifetime reads like this: (in CO) 1.5 ns; (in Cc1ccccc1) 9.2 ns; (in Clc1ccccc1) 8.6 ns; (in N#Cc1ccccc1) 7.5 ns; (in O=C1CCCCC1) 7.8 ns.
`COc1cc(/C=C/C(=O)CC(=O)/C=C/c2ccc(O)c(OC)c2)ccc1O`: the fluorescence lifetime reads like this: (in C1CCCCC1) 0.064 ns; (in CC#N) 0.376 ns; (in CN(C)C=O) 0.194 ns; (in CO) 0.148 ns; (in CS(C)=O) 0.196 ns; (in c1ccccc1) 0.201 ns.
Regarding `COC(=O)C(NC(=O)OC(C)(C)C)c1ccc2oc(-c3cc(OC)c(OC)cc3OC)nc2c1` (stereo unspecified), the fluorescence lifetime runs as follows: (in CC1CCCCC1) 1.27 ns; (in CC#N) 1.78 ns; (in CO) 2.03 ns.
Regarding `c1ccc(-c2nn(-c3ccccc3)c3nc4ccc(N(c5ccccc5)c5cccc6ccccc56)cc4cc23)cc1`, the fluorescence lifetime runs as follows: (in C1CCCCC1) 11.3 ns; (in C1CCOC1) 15.5 ns; (in CC#N) 16.3 ns; (in CC(C)=O) 19.3 ns; (in CCCCCl) 14.9 ns; (in CCCCOCCCC) 12.9 ns. This molecule came in with a fluorescence lifetime (in CN(C)C=O) of 15.8 ns.
As to `Cc1cc(C)c2nc3c(=O)[nH]c(=O)[nH]c3nc2c1`, the fluorescence lifetime (in CC#N) turned out to be 1.24 ns.
Regarding `CCCCOC(=O)c1ccccc1-c1c2ccc(=[N+](CC)CC)cc-2oc2cc(N(CC)CC)ccc12`, the fluorescence lifetime came out at 1.61 ns (in CC#N), 2.92 ns (in CCO), 1.92 ns (in CN(C)C=O) and 1.67 ns (in O).
`CCCCCCN1C(=O)c2cccc3c(-c4cccs4)ccc(c23)C1=O` had a fluorescence lifetime (in ClC(Cl)Cl) of 1.92 ns.
Take `c1ccc2c(c1)[nH]c1c3[nH]c4ccccc4c3c3nsnc3c21`: the fluorescence lifetime worked out at 1.3 ns (in CN(C)C=O), 1.02 ns (in Cc1ccccc1) and 1.27 ns (in ClCCl).
Regarding `C=CC(=O)Oc1ccc2cc(C=C)c(=O)oc2c1`, under “in CC#N”, the fluorescence lifetime is 2.81 ns.
Turning to `C(#Cc1cccs1)C(C#Cc1cccs1)=Cc1ccc(C=C(C#Cc2cccs2)C#Cc2cccs2)cc1`, the fluorescence lifetime (in ClC(Cl)Cl) was 1.6 ns.
In turn, `COc1nnc(Cl)nn1` returned a fluorescence lifetime (in ClCCl) of 160 ns.
